Assays:
ABI1 with AtPYR1 = molecular target: T1, ABI1 with AtPYR1 (Arabidopsis thaliana, UniProt O49686); assay: PP2C inhibition assay, ABI1 with AtPYR1; assay type: biochemical; conditions: 1 µM phosphatase:2 µM receptor; read-out: IC50 of ABI1 with AtPYR1
T1 construct: His; made in house
Procedure: His-tagged receptors and phosphatases were purified using nickel–nitrilotriacetic acid (Ni-NTA) affinity chromatography. Protein integrity was analyzed by SDS–polyacrylamide gel electrophoresis, followed by InstantBlue staining. Phosphatase activity was measured using p-Nitrophenyl Phosphate (pNPP) (25 mM) as substrate, 10 mM MnCl2,1 μM PP2C, and 2 μM of the indicated receptors. Proteins were incubated with the ligands for 10 min at room temperature. pNPP was then added to start the reactions, and the absorbance at 405 nm was monitored for 20 min in a ViktorX5 plate reader. Assays were repeated twice. For dose-response experiments, IC50 values were obtained with GraphPad Prism 9 using a nonlinear regression curve fit. Each ligand concentration was tested in triplicate. Phosphatase activity of ABI1 was measured using RRA(phosphoT)VA peptide as a substrate, as described ([27]). […]
(D) Dose response analysis of iSB09 or ABA-dependent inhibition of ABI1 (blue and black lines, respectively) in presence of either AtPYL1 or AtPYR1. Values (average of duplicates) show PP2C activity after incubation with the indicated concentration of ligand and receptor at 1:2 ratio (1 µM phosphatase:2 µM receptor). […]
whereas with AtPYR1 was 200 nM and 213 nM, for ABA and iSB09, respectively. Ligands were assayed

AtHAB1ΔN with CsPYL1^5m = AtHAB1ΔN with CsPYL1^5m (Citrus sinensis, UniProt A0A067E666, F137I/T135L/T153I/V112L/V168A); assay: PP2C inhibition assay, HAB1 with CsPYL1^5m; assay type: biochemical, Citrus sinensis (CsPYL1^5m); Arabidopsis thaliana (HAB1); conditions: IC50 for inhibition of HAB1 (ΔNHAB1) in the presence of CsPYL1^5m, pNPP as substrate
Sequence of AtHAB1ΔN with CsPYL1^5m (A0A067E666 1-209 V112L/T135L/F137I/T153I/V168A): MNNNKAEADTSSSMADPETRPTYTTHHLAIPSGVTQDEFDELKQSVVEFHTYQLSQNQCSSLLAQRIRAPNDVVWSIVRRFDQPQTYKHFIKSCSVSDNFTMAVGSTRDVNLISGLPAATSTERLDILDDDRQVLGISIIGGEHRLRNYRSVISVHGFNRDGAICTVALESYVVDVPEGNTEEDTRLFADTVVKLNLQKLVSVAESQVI
Sequence of AtHAB1ΔN with CsPYL1^5m (Q9CAJ0 179-511 partner): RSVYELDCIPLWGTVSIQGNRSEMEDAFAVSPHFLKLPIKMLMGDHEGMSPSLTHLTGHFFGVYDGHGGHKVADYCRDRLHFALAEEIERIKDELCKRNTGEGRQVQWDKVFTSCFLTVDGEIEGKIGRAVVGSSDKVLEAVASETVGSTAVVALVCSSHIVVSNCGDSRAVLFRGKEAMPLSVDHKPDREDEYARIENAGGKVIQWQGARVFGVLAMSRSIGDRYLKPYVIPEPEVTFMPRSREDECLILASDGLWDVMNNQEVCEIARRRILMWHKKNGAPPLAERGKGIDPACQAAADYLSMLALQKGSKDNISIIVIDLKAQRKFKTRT
Procedure: His-tagged receptors and phosphatases were purified using nickel–nitrilotriacetic acid (Ni-NTA) affinity chromatography. Protein integrity was analyzed by SDS–polyacrylamide gel electrophoresis, followed by InstantBlue staining. Phosphatase activity was measured using p-Nitrophenyl Phosphate (pNPP) (25 mM) as substrate, 10 mM MnCl2,1 μM PP2C, and 2 μM of the indicated receptors. […] Assays were repeated twice. For dose-response experiments, IC50 values were obtained with GraphPad Prism 9 using a nonlinear regression curve fit. Each ligand concentration was tested in triplicate. Phosphatase activity of ABI1 was measured using RRA(phosphoT)VA peptide as a substrate, as described ([27]).

[1] = system: Nicotiana benthamiana WT plants; assay: IR thermography of leaf temperature, N. benthamiana; assay type: in vivo; conditions: nontransformed leaves, 24 hours after spraying, 50 μM ABA or 100 μM iSB07 or iSB09, compared to mock
Procedure: IR images were taken using a FLIR […] thermocamera 1 day after the treatment (for N. benthamiana) or 2 and 5 days (for S. lycopersicum). Quantification was performed using the FLIR tools software on fully expanded leaves by analyzing 10 sections per leaf. At least six plants per genotype and treatment were analyzed in each experiment. Experiments were repeated twice. The average plant temperature ± SD of all the plants for each treatment and genotype was calculated and used to report the increase in temperature produced by each treatment. Statistical comparisons among genotypes were performed by either pairwise t tests or one-way ANOVA.

[2] = system: RAB18/RD29B gene expression; assay: RT-qPCR of RAB18/RD29B expression; parameters: species or system Arabidopsis thaliana; conditions: in vivo
Procedure: RNA was extracted from seedlings using NucleoSpin RNA Plant kit from Machery-Nagel, following the manufacturer’s instructions. Complementary DNA (cDNA) was synthesized from 1 μg of total purified RNA using 30 U of RevertAid Reverse Transcriptase (Thermo Fisher Scientific). Reverse transcription quantitative polymerase chain reaction (RT-qPCR) was performed using PyroTaq EvaGreen qPCR Master Mix 5X from Cultek, which includes EvaGreen Dye and carboxy-X-rhodamine (ROX) as a passive reference dye. The primer pairs used for this analysis were described previously ([42]). qPCR was performed in a QuantStudio 3 (Applied Biosystems). Relative quantification of gene expression data was carried out using the 2^−ΔΔCt or comparative Ct method. Expression levels were normalized using the Ct values obtained for the actin-8 gene. The presence of a single PCR product was further verified by dissociation analysis in all amplifications. The mean and SD of three independent experiments are shown.

AtPYL5:ΔNHAB1 = AtPYL5:ΔNHAB1 (Arabidopsis thaliana, UniProt Q9FLB1); assay: Native red electrophoresis of ligand-induced ternary complex
Sequence of AtPYL5:ΔNHAB1 (Q9FLB1 whole entry, stated change not applied): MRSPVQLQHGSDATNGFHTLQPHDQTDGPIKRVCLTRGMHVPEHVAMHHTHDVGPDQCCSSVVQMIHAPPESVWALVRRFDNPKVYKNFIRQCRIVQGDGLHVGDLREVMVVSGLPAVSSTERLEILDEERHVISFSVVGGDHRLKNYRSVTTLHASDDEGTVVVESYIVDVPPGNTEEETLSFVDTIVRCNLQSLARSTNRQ
Procedure: Electrophoresis was performed at a constant current of 25 mA for 150 min at 4°C. Proteins were detected in gel by InstantBlue staining, and band quantification was performed using the ImageJ software. To obtain apparent Kd values, the proportion of ternary complex formed (fraction bound) and the ABA or iSB09 free concentration in each lane were calculated and plotted as represented in Fig. 3 (E and F). Then, the dose-response curves were fitted to the classical Hill equation using the GraphPad Prism software.

HAB1 with PYL2 = molecular target: T2, HAB1 with PYL2 (Arabidopsis thaliana, UniProt O80992); assay: PP2C inhibition assay, HAB1 with PYL2; assay type: biochemical; conditions: 1 μM iSB09, PYL2
T2 construct: His; made in house
T2 sequence (O80992 whole entry): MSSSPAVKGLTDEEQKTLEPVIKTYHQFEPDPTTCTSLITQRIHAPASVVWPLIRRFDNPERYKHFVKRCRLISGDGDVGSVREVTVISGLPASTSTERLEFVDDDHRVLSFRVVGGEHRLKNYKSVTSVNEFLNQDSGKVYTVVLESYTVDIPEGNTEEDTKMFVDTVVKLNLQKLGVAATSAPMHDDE
T2 sequence (Q9CAJ0 179-511 partner limits assumed): as the sequence (Q9CAJ0 179-511 partner) above
Procedure: (§1) His-tagged receptors and phosphatases were purified using nickel–nitrilotriacetic acid (Ni-NTA) affinity chromatography. Protein integrity was analyzed by SDS–polyacrylamide gel electrophoresis, followed by InstantBlue staining. Phosphatase activity was measured using p-Nitrophenyl Phosphate (pNPP) (25 mM) as substrate, 10 mM MnCl2,1 μM PP2C, and 2 μM of the indicated receptors. Proteins were incubated with the ligands for 10 min at room temperature. pNPP was then added to start the reactions, and the absorbance at 405 nm was monitored for 20 min in a ViktorX5 plate reader. Assays were repeated twice. For dose-response experiments, IC50 values were obtained with GraphPad Prism 9 using a nonlinear regression curve fit. Each ligand concentration was tested in triplicate. Phosphatase activity of ABI1 was measured using RRA(phosphoT)VA peptide as a substrate, as described ([27]).

HAB1 with AtPYL4 = molecular target: T3, HAB1 with AtPYL4 (Arabidopsis thaliana, UniProt O80920); assay: PP2C inhibition assay, HAB1 with AtPYL4; assay type: biochemical; conditions: 1 µM phosphatase:2 µM receptor
T3 construct: His; made in house
T3 sequence (Q9CAJ0 179-511): as the sequence (Q9CAJ0 179-511 partner) above
T3 sequence (O80920 whole entry): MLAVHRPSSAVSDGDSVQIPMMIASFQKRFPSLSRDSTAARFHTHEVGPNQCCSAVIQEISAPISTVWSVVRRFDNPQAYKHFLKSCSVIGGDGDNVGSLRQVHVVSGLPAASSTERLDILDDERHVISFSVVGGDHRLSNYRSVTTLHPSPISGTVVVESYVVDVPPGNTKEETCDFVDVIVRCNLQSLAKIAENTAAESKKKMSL
Procedure: as §1
Fig. S6. QB lacks bioactivity in tomato whereas iSB09 is
(A) Quantification of the leaf temperature difference at 2 and 5 days after spraying tomato plants with 0.1 % DMSO
(mock- treated control), 10 µM iSB09 or 10 µM QB.
Asterisk indicates p<0.001 (Student’s t test). Values show individual points and average ± SD (n=4 replicates for mock and chemical treatments). (B) IR-images of representative tomato plants at 2 days after being treated with 0.1 % DMSO […]

ΔNHAB1 with AtPYL5 = molecular target: T4, ΔNHAB1 with AtPYL5 (Arabidopsis thaliana, UniProt Q9FLB1); assay: PP2C inhibition assay, HAB1 with AtPYL5; assay type: biochemical; conditions: read-out: inhibition of HAB1
T4 construct: His; made in house
T4 sequence (Q9FLB1 whole entry, stated change not applied): as the sequence (Q9FLB1 whole entry, stated change not applied) above
Procedure: as §1

T1 sequence (O49686 whole entry): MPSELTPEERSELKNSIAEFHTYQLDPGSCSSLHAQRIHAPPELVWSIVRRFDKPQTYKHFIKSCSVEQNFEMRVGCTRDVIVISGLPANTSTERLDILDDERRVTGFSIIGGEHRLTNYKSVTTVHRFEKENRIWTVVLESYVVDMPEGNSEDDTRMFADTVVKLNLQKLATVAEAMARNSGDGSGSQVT
T1 sequence (P49597 whole entry partner): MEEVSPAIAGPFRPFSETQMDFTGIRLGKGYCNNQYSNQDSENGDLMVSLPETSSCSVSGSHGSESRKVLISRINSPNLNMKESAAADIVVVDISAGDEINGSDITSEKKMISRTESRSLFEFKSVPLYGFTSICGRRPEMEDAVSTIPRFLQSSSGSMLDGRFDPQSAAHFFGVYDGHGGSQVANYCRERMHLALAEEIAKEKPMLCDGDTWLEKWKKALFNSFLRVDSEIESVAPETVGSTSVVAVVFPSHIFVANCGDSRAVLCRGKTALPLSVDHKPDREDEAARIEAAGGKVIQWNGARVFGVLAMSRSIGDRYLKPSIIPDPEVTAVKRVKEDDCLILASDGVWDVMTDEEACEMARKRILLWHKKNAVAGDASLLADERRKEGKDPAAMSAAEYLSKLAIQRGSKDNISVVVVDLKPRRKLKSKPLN

SMILES: CCn1c(=O)cc(C)c2cc(CNS(=O)(=O)c3ccccc3)ccc21 [iSB09]
- IC50 (ABI1 with AtPYR1): 0.213 µM
- IC50 (AtHAB1ΔN with CsPYL1^5m): 0.316 µM
- leaf temperature by thermal imaging [1]: increased leaf temperature
- RAB18/RD29B up-regulation in CsPYL1^5m plants relative to WT plants [2]: markedly higher
- Kd (AtPYL5:ΔNHAB1): 1.2 µM
- inhibition at 1 µM (HAB1 with PYL2): 60 to 70%
- IC50 (HAB1 with AtPYL4): 0.33 µM
- inhibition at 1 µM (ΔNHAB1 with AtPYL5): 60 to 70%
